Results on one substance are retold here after patent US7135292B2, “Analysis and modification of gene expression in marine invertebrate cells” (Harbor Branch Oceanographic Institution, Inc., priority 2002, dated 2006).

Holding throughout (type): cell-based
Assay [1] relates to TIB-155 murine lymphocytes. Nature of the assay: Microarray analysis of gene expression, PHA-treated vs untreated murine lymphocytes. The note with it: significant regulation, opposite to sponge cells. The method, then:
Murine Cells. Following the same experimental design as described for sponge cells, TIB-155 murine lymphocytes were cultured in the American Type Culture Collection-specified growth medium (RPMI 1640 with 0.05 mM 2-mercaptoethanol and 10% fetal bovine serum).

Assay [2] deals with Axinella corrugata cell cultures. The assay is described as follows: Fluorescent assays of DNA and protein content in PHA-treated cultures. The note with it: 6 replicate comparisons, observed between 6 and 18 hours after treatment. The text has this:
Sponge Cells. Cells were obtained from cryopreserved stocks at Harbor Branch Oceanographic Institution. All cells were derived from Axinella corrugata specimens collected in the waters of Florida, the Bahamas, and the Caribbean Sea, and were cryopreserved according to Pomponi et al. (Pomponi et al. 1997b supra). This sponge is relatively common and easy to collect, amenable to culture efforts, and produces the bioactive compound, stevensine, in vitro (Pomponi et al. 1997b supra). Enriched fractions of dissociated sponge cells were prepared, cryopreserved, and thawed according to previously published methods (Pomponi et al. 1997b supra). Cells were incubated at 22–25° C. in a growth medium consisting of a modified and supplemented commercial formulation (Willoughby and Pomponi 2000 supra). The length of the incubation period was based on my unpublished observation of elevated DNA and protein contents (9%, P=0.034, and 9%, P=0.038, respectively) in PHA-treated cultures, according to fluorescent assays of 6 replicate comparisons (Willoughby and Pomponi 2000 supra). Since the effects were observed between 6 and 18 hours after treatment, cells were cultured for 12-hour periods representing the center point of the period of observed changes. […]

The test system is the same in assay [3]. The assay is described as follows: PCR verification of cdc10 and calcineurin B expression. The note with it: two specimens. Here is the method:
cDNA Preparation. cDNA was prepared as described in the array experiments, using unlabeled dCTP instead of the α-^33P dCTP. The final product was then diluted 25-fold in water, loaded onto a DNA recovery column (Zymo Research D4001) and washed according to the manufacturer's protocol followed by elution with four consecutive 25-μl aliquots of nuclease free water. The procedure was then repeated for 40-μl aliquots, with a final elution in two aliquots of 20 μl, to produce twice-washed cDNA. Final template solution was prepared from 10 μl of twice-washed cDNA by addition of 80 μl water and precipitation with 30 μl 5M ammonium acetate and 250 μl ethanol at −20° C. for 30 minutes. Samples were centrifuged at 4° C. for 30 minutes at 10,000×g. Pellets were washed twice with 70% ethanol and air-dried for 15 minutes prior to resuspension in 20 μl nuclease free water. For the -RT control reactions, RNA/DNA template amounts were calculated volumetrically, to correspond with the volume of final template used in each reaction. Since some loss of cDNA can be expected for each of the purification steps, the volume of template used in the -RT control reactions likely exceeds that used in the corresponding test reactions, resulting in overestimation of the possible contribution of DNA background signals, acting as a conservative control.
Primers. […]

As to phytohemagglutinin [PHA], the “COUP transcription factor regulation in murine cells” value in assay [1] is listed as “higher signal in the PHA-treated murine cells”. The “elevated DNA content in PHA-treated cultures” value in assay [2] (P=0.034) was 9%. Also, in assay [2] (P=0.038), the “elevated protein content in PHA-treated cultures” value is 9%. Also, the “cdc10 expression by PCR, PHA treated vs untreated” value in assay [3] (FIG. 9A) is on record as “up-regulation”. Further, the “calcineurin B expression by PCR, PHA treated vs untreated” value in assay [3] (FIG. 9B) is “down-regulation”.
